Data taken from ChEMBL document CHEMBL1145624, “The isolation, structure determination and cytotoxicity of the new fungal metabolite, trichodermamide C” (Bioorg Med Chem Lett, 2008).
Converted amounts (≈) assume the structure as drawn.

Key:
A549 = assay: Cytotoxicity against human A549 cells after 24 hrs; assay type: functional, cell-based; conditions: A549, 24 h
HCT-116 = assay: Cytotoxicity against human HCT116 cells after 24 hrs; assay type: functional, cell-based; conditions: HCT-116, 24 h

COc1ccc2cc(N(C)C(=O)C3=NO[C@H]4[C@H](O)C=C[C@@H](O)[C@@]4(O)C3)c(=O)oc2c1OC [TRICHODERMAMIDE C]
IC50 (A549): 4.28 µg/mL (≈ 9.59 µM)
IC50 (HCT-116): 0.68 µg/mL (≈ 1.52 µM)
